Test results: patent US20100087457A1, “DOSAGES AND METHODS FOR THE TREATMENT OF CANCER” (Myriad Pharmaceuticals, Inc, priority 2007, published 2010)
Where “and” joins values, the source holds several entries; their conditions need not be identical. Equal values may be shown once. Where a name gives a salt, the structure may show the parent alone.

Assay: Phase I clinical trial: plasma concentrations after weekly intravenous infusion (pharmacokinetics)
Type: in vivo, human
Settings: LLOQ 1 ng/mL; for Plasma Concentrations 2 HR: 2 hr after infusion; for Plasma Concentrations 4 HR: 4 hr after infusion; for Plasma Concentrations 6 HR: 6 hr after infusion; for Plasma Concentrations 12 HR: 12 hr after infusion; for Plasma Concentrations 24 HR: 24 hr after infusion; for Plasma Concentrations EOI: end of infusion; for Plasma Concentrations PREDOSE: Day 15 (third weekly dose)
Experimental: An open-label, dose-escalating, multiple-dose study to define the safety, tolerability and pharmacokinetics of weekly intravenous administration of (4-Methoxy-phenyl)-methyl-(2-methyl-quinazolin-4-yl)-amine hydrochloride was performed. A dosing schedule (each 4 week cycle) was performed for (4-Methoxy-phenyl)-methyl-(2-methyl-quinazolin-4-yl)-amine hydrochloride weekly for 3 weeks with no infusion on the fourth week of each cycle. Subjects with refractory solid tumors were enrolled in cohorts of 3. During Cycle 1, subjects were hospitalized during each infusion of (4-Methoxy-phenyl)-methyl-(2-methyl-quinazolin-4-yl)-amine hydrochloride and remained for observation and safety evaluation for approximately 24 hours following the end of the infusion. All subjects had continuous telemetry for 2 hours prior to infusion, for 1-2 hour infusion and for 3 hours after the end of the infusion. Any clinically significant electrocardiographic (ECG) wave form abnormality was recorded and prolongation of the monitoring period extended at the discretion of the principal investigator.
Blood samples were collected prior to dosing, at the end of the infusion, and 1, 2, 4, 6, 12, and 24 hours after the infusion. This sampling schedule occurred on Days 1 and 15 with administration of the first and third doses. Samples were collected into tubes containing EDTA and stored on ice until centrifuged. The plasma was frozen at approximately −20° C. in labeled, plastic tubes, or vials, and tightly capped. The samples were shipped to Myriad Pharmaceuticals, Inc. for analysis of (4-Methoxy-phenyl)-methyl-(2-methyl-quinazolin-4-yl)-amine hydrochloride. Pharmacokinetic analysis was conducted using WinNonlin 4.0®.

[1] = Day 1, 0.3 mg/m^2 i.v., infusion 1 hr
[2] = Day 1, 2.1 mg/m^2 i.v., infusion 1 hr, hydrochloride
[3] = Day 1, 2.7 mg/m^2 i.v., infusion 1 hr, hydrochloride
[4] = Day 1, 3.3 mg/m^2 i.v., infusion 2 hr, hydrochloride
[5] = Day 15, 0.3 mg/m^2 i.v., infusion 1 hr
[6] = Day 15, 1.0 mg/m^2 i.v., infusion 1 hr, hydrochloride
[7] = Day 15, 1.0 mg/m^2 i.v., infusion 1 hr
[8] = Day 15, 3.9 mg/m^2 i.v., infusion 2 hr, hydrochloride

SMILES: COc1ccc(N(C)c2nc(C)nc3ccccc23)cc1 [(4-Methoxy-phenyl)-methyl-(2-methyl-quinazolin-4-yl)-amine hydrochloride]
- Plasma Concentrations 1 HR (Day 1, 0.3 mg/m^2 i.v., infusion 1 hr, 1 hr after infusion, hydrochloride): 1.17 ng/mL and 1.25 ng/mL
- Plasma Concentrations 2 HR [1]: BQL
- Plasma Concentrations 4 HR [1]: BQL
- Plasma Concentrations 6 HR [1]: BQL
- Plasma Concentrations 12 HR [1]: BQL
- Plasma Concentrations 24 HR [1]: BQL
- Plasma Concentrations EOI (Day 1, 0.3 mg/m^2 i.v., infusion 1 hr, hydrochloride): 1.77 ng/mL and 1.52 ng/mL and 2.43 ng/mL
- Plasma Concentrations 24 HR (Day 1, 1.5 mg/m^2 i.v., infusion 1 hr): BQL
- Plasma Concentrations 1 HR (Day 1, 2.1 mg/m^2 i.v., infusion 1 hr, 1 hr after infusion, hydrochloride): 5.53 ng/mL and 3.75 ng/mL
- Plasma Concentrations 2 HR [2]: 4.78 ng/mL and 3.94 ng/mL
- Plasma Concentrations 4 HR [2]: 2.69 ng/mL and 2.41 ng/mL
- Plasma Concentrations 6 HR [2]: 1.62 ng/mL and 1.18 ng/mL
- Plasma Concentrations 24 HR (Day 1, 2.1 mg/m^2 i.v., infusion 1 hr): BQL
- Plasma Concentrations 1 HR (Day 1, 2.7 mg/m^2 i.v., infusion 1 hr, 1 hr after infusion, hydrochloride): 4.69 ng/mL
- Plasma Concentrations 2 HR [3]: 4.03 ng/mL and 5.54 ng/mL
- Plasma Concentrations 4 HR [3]: 2.33 ng/mL and 3.91 ng/mL
- Plasma Concentrations 6 HR [3]: 1.68 ng/mL and 3.11 ng/mL
- Plasma Concentrations EOI [3]: 10.42 ng/mL and 11.10 ng/mL and 7.52 ng/mL
- Plasma Concentrations 2 HR [4]: 10.37 ng/mL and 8.81 ng/mL and 5.19 ng/mL
- Plasma Concentrations EOI [4]: 8.67 ng/mL and 11.97 ng/mL and 13.37 ng/mL and 16.77 ng/mL
- Plasma Concentrations PREDOSE (0.3 mg/m^2 i.v., infusion 1 hr): BQL
- Plasma Concentrations PREDOSE (0.6 mg/m^2 i.v., infusion 1 hr): BQL
- Plasma Concentrations PREDOSE (1.0 mg/m^2 i.v., infusion 1 hr): BQL
- Plasma Concentrations PREDOSE (1.5 mg/m^2 i.v., infusion 1 hr): BQL
- Plasma Concentrations PREDOSE (2.1 mg/m^2 i.v., infusion 1 hr): BQL
- Plasma Concentrations PREDOSE (2.7 mg/m^2 i.v., infusion 1 hr): BQL
- Plasma Concentrations PREDOSE (3.3 mg/m^2 i.v., infusion 2 hr): BQL
- Plasma Concentrations 2 HR [5]: BQL
- Plasma Concentrations 4 HR [5]: BQL
- Plasma Concentrations 6 HR [5]: BQL
- Plasma Concentrations 12 HR [5]: BQL
- Plasma Concentrations 24 HR [5]: BQL
- Plasma Concentrations 1 HR (Day 15, 1.0 mg/m^2 i.v., infusion 1 hr, 1 hr after infusion, hydrochloride): 2.51 ng/mL
- Plasma Concentrations 2 HR [6]: 2.15 ng/mL
- Plasma Concentrations 6 HR [7]: BQL
- Plasma Concentrations 12 HR [7]: BQL
- Plasma Concentrations 24 HR [7]: BQL
- Plasma Concentrations EOI [6]: 8.27 ng/mL and 7.82 ng/mL
- Plasma Concentrations 4 HR (Day 15, 1.5 mg/m^2 i.v., infusion 1 hr, hydrochloride): 1.60 ng/mL and 1.40 ng/mL and 1.30 ng/mL
- Plasma Concentrations 1 HR (Day 15, 2.1 mg/m^2 i.v., infusion 1 hr, 1 hr after infusion, hydrochloride): 6.21 ng/mL and 7.19 ng/mL
- Plasma Concentrations 4 HR (Day 15, 2.1 mg/m^2 i.v., infusion 1 hr, hydrochloride): 3.79 ng/mL
- Plasma Concentrations 1 HR (Day 15, 3.3 mg/m^2 i.v., infusion 1 hr, 1 hr after infusion, hydrochloride): 9.00 ng/mL and 17.56 ng/mL and 15.17 ng/mL
- Plasma Concentrations 1 HR (Day 15, 3.3 mg/m^2 i.v., infusion 2 hr, 1 hr after infusion, hydrochloride): 12.21 ng/mL and 6.40 ng/mL and 7.21 ng/mL
- Plasma Concentrations 2 HR (Day 15, 3.3 mg/m^2 i.v., infusion 2 hr, hydrochloride): 7.50 ng/mL and 5.52 ng/mL and 4.16 ng/mL
- Plasma Concentrations 1 HR (Day 15, 3.9 mg/m^2 i.v., infusion 2 hr, 1 hr after infusion, hydrochloride): 10.97 ng/mL and 12.15 ng/mL and 7.79 ng/mL and 9.85 ng/mL
- Plasma Concentrations 2 HR [8]: 8.48 ng/mL and 14.58 ng/mL and 7.36 ng/mL and 8.35 ng/mL
- Plasma Concentrations 4 HR [8]: 9.13 ng/mL and 7.84 ng/mL and 10.17 ng/mL and 6.81 ng/mL
- Plasma Concentrations 1 HR (Day 15, 4.5 mg/m^2 i.v., infusion 2 hr, 1 hr after infusion, hydrochloride): 17.94 ng/mL and 11.45 ng/mL and 10.03 ng/mL
- Plasma Concentrations 2 HR (Day 15, 4.5 mg/m^2 i.v., infusion 2 hr, hydrochloride): 14.46 ng/mL and 12.32 ng/mL and 8.11 ng/mL
- concentration at 1 h after end of infusion (human, plasma, iv, 0.3 mg/m^2, Day 1, 0.3 mg/m^2 i.v., infusion 1 hr, 1 hr after infusion): 1.03 ng/mL
